Assay results reported in PubChem BioAssay (NCI).
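Each compound was tested at five concentrations against cells in 96-well plates for 48 hours. GI50 marks 50% less growth. TGI marks complete inhibition of growth.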

Tests used:
Assay in all cases: growth of human tumour cells (NCI), 48 h
SR leukemia = tested on: SR leukemia
TK-10 renal = tested on: TK-10 renal
HS 578T breast = tested on: HS 578T breast
T-47D breast = tested on: T-47D breast
M14 melanoma = tested on: M14 melanoma
BT-549 breast = tested on: BT-549 breast
ACHN renal = tested on: ACHN renal
MDA-MB-435 = tested on: MDA-MB-435
MDA-MB-231 breast = tested on: MDA-MB-231 breast
DU-145 prostate = tested on: DU-145 prostate
786-0 renal = tested on: 786-0 renal
PC-3 prostate = tested on: PC-3 prostate
UACC-62 melanoma = tested on: UACC-62 melanoma
NCI-H226 lung = tested on: NCI-H226 lung
MOLT-4 leukemia = tested on: MOLT-4 leukemia
OVCAR-3 ovarian = tested on: OVCAR-3 ovarian
NCI-H522 lung = tested on: NCI-H522 lung
SF-268 CNS = tested on: SF-268 CNS
UACC-257 melanoma = tested on: UACC-257 melanoma
OVCAR-4 ovarian = tested on: OVCAR-4 ovarian
SK-OV-3 ovarian = tested on: SK-OV-3 ovarian
SK-MEL-2 melanoma = tested on: SK-MEL-2 melanoma
HOP-62 NSCLC = tested on: HOP-62 NSCLC
MALME-3M melanoma = tested on: MALME-3M melanoma
EKVX NSCLC = tested on: EKVX NSCLC
SK-MEL-5 melanoma = tested on: SK-MEL-5 melanoma
HT29 colon = tested on: HT29 colon
KM12 colon = tested on: KM12 colon
SNB-19 CNS = tested on: SNB-19 CNS
SW-620 colon = tested on: SW-620 colon
HCT-116 colon = tested on: HCT-116 colon
CAKI-1 renal = tested on: CAKI-1 renal
NCI-H460 lung = tested on: NCI-H460 lung
A549 NSCLC = tested on: A549 NSCLC
SNB-75 CNS = tested on: SNB-75 CNS
CCRF-CEM leukemia = tested on: CCRF-CEM leukemia
UO-31 renal = tested on: UO-31 renal
LOX IMVI melanoma = tested on: LOX IMVI melanoma
OVCAR-8 ovarian = tested on: OVCAR-8 ovarian
SF-539 CNS = tested on: SF-539 CNS
SF-295 CNS = tested on: SF-295 CNS
SK-MEL-28 melanoma = tested on: SK-MEL-28 melanoma
IGROV1 ovarian = tested on: IGROV1 ovarian
K-562 leukemia = tested on: K-562 leukemia
RXF 393 renal = tested on: RXF 393 renal
RPMI-8226 leukemia = tested on: RPMI-8226 leukemia
HCT-15 colon = tested on: HCT-15 colon
U251 CNS = tested on: U251 CNS
COLO 205 colon = tested on: COLO 205 colon
MCF7 breast = tested on: MCF7 breast

For COc1ccc(O)c2c(=O)c3c(OC)cc4c(c3oc12)[C@@H]1C=CO[C@@H]1O4, the GI50 (SR leukemia) was 0.0518 µM, the GI50 (TK-10 renal) was 4.51 µM and the TGI (TK-10 renal) was 34.9 µM. It also gave a GI50 (HS 578T breast) of 3.96 µM, a TGI (HS 578T breast) of over 43 µM and a GI50 (T-47D breast) of 0.475 µM. For the same molecule, the TGI (T-47D breast) was 13.3 µM, the GI50 (M14 melanoma) was over 21.4 µM and the TGI (M14 melanoma) was over 100 µM. For the same molecule, the GI50 (BT-549 breast) was 4.77 µM, the TGI (BT-549 breast) was 36.5 µM and the GI50 (ACHN renal) was 0.321 µM. For the same molecule, the TGI (ACHN renal) was 5.64 µM, the GI50 (MDA-MB-435) was 3.3 µM and the TGI (MDA-MB-435) was over 100 µM. It also gave a GI50 (MDA-MB-231 breast) of 7.9 µM, a TGI (MDA-MB-231 breast) of over 100 µM and a GI50 (DU-145 prostate) of 3.03 µM. The TGI (DU-145 prostate) was over 34.9 µM, the GI50 (786-0 renal) was 9.87 µM and the TGI (786-0 renal) was over 60.5 µM. It also gave a GI50 (PC-3 prostate) of over 21.4 µM and a TGI (PC-3 prostate) of over 100 µM.
With O=C(O)CN(CCN(CC(=O)O)CC(=O)O)CC(=O)O the GI50 (UACC-62 melanoma) was over 100 µM, the TGI (UACC-62 melanoma) was over 100 µM and the GI50 (TK-10 renal) was over 100 µM. It also gave a TGI (TK-10 renal) of over 100 µM, a GI50 (NCI-H226 lung) of over 100 µM and a TGI (NCI-H226 lung) of over 100 µM. For the same molecule, the GI50 (HS 578T breast) was over 100 µM, the TGI (HS 578T breast) was over 100 µM and the GI50 (MOLT-4 leukemia) was over 100 µM. For the same molecule, the TGI (MOLT-4 leukemia) was over 100 µM, the GI50 (T-47D breast) was over 100 µM and the TGI (T-47D breast) was over 100 µM. The GI50 (OVCAR-3 ovarian) was over 100 µM, the TGI (OVCAR-3 ovarian) was over 100 µM and the GI50 (NCI-H522 lung) was over 100 µM. For the same molecule, the TGI (NCI-H522 lung) was over 100 µM, the GI50 (SF-268 CNS) was over 100 µM and the TGI (SF-268 CNS) was over 100 µM. The GI50 (UACC-257 melanoma) was over 100 µM, the TGI (UACC-257 melanoma) was over 100 µM and the GI50 (OVCAR-4 ovarian) was over 100 µM. For the same molecule, the TGI (OVCAR-4 ovarian) was over 100 µM, the GI50 (M14 melanoma) was over 100 µM and the TGI (M14 melanoma) was over 100 µM. The GI50 (BT-549 breast) was over 100 µM, the TGI (BT-549 breast) was over 100 µM and the GI50 (ACHN renal) was over 100 µM. The TGI (ACHN renal) was over 100 µM, the GI50 (SK-OV-3 ovarian) was over 100 µM and the TGI (SK-OV-3 ovarian) was over 100 µM. The GI50 (SK-MEL-2 melanoma) was over 100 µM, the TGI (SK-MEL-2 melanoma) was over 100 µM and the GI50 (HOP-62 NSCLC) was over 100 µM. For the same molecule, the TGI (HOP-62 NSCLC) was over 100 µM, the GI50 (MDA-MB-435) was over 100 µM and the TGI (MDA-MB-435) was over 100 µM. It also gave a GI50 (MALME-3M melanoma) of over 100 µM, a TGI (MALME-3M melanoma) of over 100 µM and a GI50 (EKVX NSCLC) of over 100 µM. The TGI (EKVX NSCLC) was over 100 µM, the GI50 (SK-MEL-5 melanoma) was over 100 µM and the TGI (SK-MEL-5 melanoma) was over 100 µM. The GI50 (HT29 colon) was over 100 µM, the TGI (HT29 colon) was over 100 µM and the GI50 (MDA-MB-231 breast) was over 100 µM. For the same molecule, the TGI (MDA-MB-231 breast) was over 100 µM, the GI50 (KM12 colon) was over 100 µM and the TGI (KM12 colon) was over 100 µM. The GI50 (SNB-19 CNS) was over 100 µM, the TGI (SNB-19 CNS) was over 100 µM and the GI50 (SW-620 colon) was over 100 µM. It also gave a TGI (SW-620 colon) of over 100 µM, a GI50 (HCT-116 colon) of over 100 µM and a TGI (HCT-116 colon) of over 100 µM. It also gave a GI50 (CAKI-1 renal) of over 100 µM, a TGI (CAKI-1 renal) of over 100 µM and a GI50 (NCI-H460 lung) of over 100 µM. It also gave a TGI (NCI-H460 lung) of over 100 µM, a GI50 (DU-145 prostate) of over 100 µM and a TGI (DU-145 prostate) of over 100 µM. The GI50 (A549 NSCLC) was over 100 µM, the TGI (A549 NSCLC) was over 100 µM and the GI50 (SNB-75 CNS) was over 100 µM. It also gave a TGI (SNB-75 CNS) of over 100 µM, a GI50 (CCRF-CEM leukemia) of over 100 µM and a TGI (CCRF-CEM leukemia) of over 100 µM. The GI50 (UO-31 renal) was over 100 µM, the TGI (UO-31 renal) was over 100 µM and the GI50 (LOX IMVI melanoma) was over 100 µM. It also gave a TGI (LOX IMVI melanoma) of over 100 µM, a GI50 (786-0 renal) of over 100 µM and a TGI (786-0 renal) of over 100 µM. It also gave a GI50 (OVCAR-8 ovarian) of over 100 µM, a TGI (OVCAR-8 ovarian) of over 100 µM and a GI50 (SF-539 CNS) of over 100 µM. It also gave a TGI (SF-539 CNS) of over 100 µM, a GI50 (SF-295 CNS) of over 100 µM and a TGI (SF-295 CNS) of over 100 µM. For the same molecule, the GI50 (SK-MEL-28 melanoma) was over 100 µM, the TGI (SK-MEL-28 melanoma) was over 100 µM and the GI50 (IGROV1 ovarian) was over 100 µM. It also gave a TGI (IGROV1 ovarian) of over 100 µM, a GI50 (PC-3 prostate) of over 100 µM and a TGI (PC-3 prostate) of over 100 µM. It also gave a GI50 (K-562 leukemia) of over 100 µM, a TGI (K-562 leukemia) of over 100 µM and a GI50 (RXF 393 renal) of over 100 µM. For the same molecule, the TGI (RXF 393 renal) was over 100 µM, the GI50 (RPMI-8226 leukemia) was over 100 µM and the TGI (RPMI-8226 leukemia) was over 100 µM. For the same molecule, the GI50 (HCT-15 colon) was over 100 µM, the TGI (HCT-15 colon) was over 100 µM and the GI50 (U251 CNS) was over 100 µM. For the same molecule, the TGI (U251 CNS) was over 100 µM, the GI50 (COLO 205 colon) was over 100 µM and the TGI (COLO 205 colon) was over 100 µM. For the same molecule, the GI50 (MCF7 breast) was over 100 µM and the TGI (MCF7 breast) was over 100 µM.
